Assay results: publication PMC12621202, “RTx-303, an Orally Bioavailable Polθ Polymerase Inhibitor That Potentiates PARP Inhibitors in BRCA Mutant Tumors” (Journal of Medicinal Chemistry, 2025)
Read-outs that look alike come from different tables or passages of the source.

Tests used:
[1] = tested on: HRD cell lines (MDA-MB-436, PE01 and other BRCA mutant cells); test: Synergy with PARPi (Combenefit); assay type: cell-based, human
Method: […] Each sample had three replicates. The medium was replaced every 2 days. Cell viability was assessed after 5-day treatment by the WST-1 assay (Sigma, Cat. # 5015944001) according to the manufacturer instructions.

LogP = assay type: physicochemical; conditions: method not described
Description: 1 Dimethyl and Monomethyl Side-Chains Improve Metabolic Stability and Cellular Potency | column: LogP

[2] = Plasma protein binding (species not given); assay type: in vitro ADME
Description: 3 Dimethylamine Side-Chain Increases Oral Bioavailability | column: Plasma protein binding (%)

Hepatocyte stability [3] = assay type: in vitro ADME; conditions: dog (Beagle) hepatocytes, male; read-out: Dog (Beagle) ^+ (T1/2 min)
[4] = Mouse plasma protein binding; assay type: in vitro ADME
Description: 4 In Vitro ADME and Potency of Chiral Derivatives | column: Mouse plasma protein binding (% free)

Hepatocyte stability [5] = assay type: in vitro ADME; conditions: cynomolgus monkey; monkey hepatocytes, male; read-out: Monkey (Cynomologous) ^+ (T1/2 min)
ATM(h) = biological target: T1, ATM(h) (Homo sapiens, UniProt Q13315); test: Kinase profiling; assay type: biochemical; conditions: mean n=2, read-out: % Activity with 10 µM RTx-303
T1 construct: purchased Eurofins (KinaseProfiler)
Method: (§1) Supplementary Fig. 8 Pharmacological profiling of RTx-303 against kinases.
(§2) % activity of the indicated kinases is shown following incubation with 10 µM RTx-303 in vitro.
(§3) Data represent mean (n = 2).

GRK5(h) = biological target: T2, GRK5(h) (Homo sapiens, UniProt P34947); test: Kinase profiling; assay type: biochemical; conditions: mean n=2, read-out: % Activity with 10 µM RTx-303
T2 construct: purchased Eurofins (KinaseProfiler)
Method: as §1, §2, §3

CDK1/cyclinB(h) = biological target: T3, CDK1/cyclinB(h) (Homo sapiens, UniProt P06493); test: Kinase profiling; assay type: biochemical; conditions: mean n=2, read-out: % Activity with 10 µM RTx-303
T3 construct: purchased Eurofins (KinaseProfiler)
Method: as §1, §2, §3

TAF1L(h) = biological target: T4, TAF1L(h) (Homo sapiens, UniProt Q8IZX4); test: Kinase profiling; assay type: biochemical; conditions: mean n=2, read-out: % Activity with 10 µM RTx-303
T4 construct: purchased Eurofins (KinaseProfiler)
Method: as §1, §2, §3

DYRK3(h) = biological target: T5, DYRK3(h) (Homo sapiens, UniProt O43781); test: Kinase profiling; assay type: biochemical; conditions: mean n=2, read-out: % Activity with 10 µM RTx-303
T5 construct: purchased Eurofins (KinaseProfiler)
Method: as §1, §2, §3

eEF-2K(h) = biological target: T6, eEF-2K(h) (Homo sapiens, UniProt O00418); test: Kinase profiling; assay type: biochemical; conditions: mean n=2, read-out: % Activity with 10 µM RTx-303
T6 construct: purchased Eurofins (KinaseProfiler)
Method: as §1, §2, §3

PKCβI(h) = biological target: T7, PKCβI(h) (Homo sapiens, UniProt P05771); test: Kinase profiling; assay type: biochemical; conditions: mean n=2, read-out: % Activity with 10 µM RTx-303
T7 construct: purchased Eurofins (KinaseProfiler)
Method: as §1, §2, §3

MOK(h) = biological target: T8, MOK(h) (Homo sapiens, UniProt Q9UQ07); test: Kinase profiling; assay type: biochemical; conditions: mean n=2, read-out: % Activity with 10 µM RTx-303
T8 construct: purchased Eurofins (KinaseProfiler)
Method: as §1, §2, §3

MLK4(h) = biological target: T9, MLK4(h) (Homo sapiens, UniProt Q5TCX8); test: Kinase profiling; assay type: biochemical; conditions: mean n=2, read-out: % Activity with 10 µM RTx-303
T9 construct: purchased Eurofins (KinaseProfiler)
Method: as §1, §2, §3

TTBK2(h) = biological target: T10, TTBK2(h) (Homo sapiens, UniProt Q6IQ55); test: Kinase profiling; assay type: biochemical; conditions: mean n=2, read-out: % Activity with 10 µM RTx-303
T10 construct: purchased Eurofins (KinaseProfiler)
Method: as §1, §2, §3

CDK7/cyclinH/MAT1(h) = biological target: T11, CDK7/cyclinH/MAT1(h) (Homo sapiens, UniProt P50613); test: Kinase profiling; assay type: biochemical; conditions: mean n=2, read-out: % Activity with 10 µM RTx-303
T11 construct: purchased Eurofins (KinaseProfiler)
Method: as §1, §2, §3

PIP4K2a(h) = biological target: T12, PIP4K2a(h) (Homo sapiens, UniProt P48426); test: Kinase profiling; assay type: biochemical; conditions: mean n=2, read-out: % Activity with 10 µM RTx-303
T12 construct: purchased Eurofins (KinaseProfiler)
Method: as §1, §2, §3

TRB2(h) = biological target: T13, TRB2(h) (Homo sapiens, UniProt Q92519); test: Kinase profiling; assay type: biochemical; conditions: mean n=2, read-out: % Activity with 10 µM RTx-303
T13 construct: purchased Eurofins (KinaseProfiler)
Method: as §1, §2, §3

CDK14/cyclinY(h) = biological target: T14, CDK14/cyclinY(h) (Homo sapiens, UniProt O94921); test: Kinase profiling; assay type: biochemical; conditions: mean n=2, read-out: % Activity with 10 µM RTx-303
T14 construct: purchased Eurofins (KinaseProfiler)
Method: as §1, §2, §3

MAPKAP-K3(h) = biological target: T15, MAPKAP-K3(h) (Homo sapiens, UniProt Q16644); test: Kinase profiling; assay type: biochemical; conditions: mean n=2, read-out: % Activity with 10 µM RTx-303
T15 construct: purchased Eurofins (KinaseProfiler)
Method: as §1, §2, §3

PKCγ(h) = biological target: T16, PKCγ(h) (Homo sapiens, UniProt P05129); test: Kinase profiling; assay type: biochemical; conditions: mean n=2, read-out: % Activity with 10 µM RTx-303
T16 construct: purchased Eurofins (KinaseProfiler)
Method: as §1, §2, §3

CDK6/cyclinD3(h) = biological target: T17, CDK6/cyclinD3(h) (Homo sapiens, UniProt Q00534); test: Kinase profiling; assay type: biochemical; conditions: mean n=2, read-out: % Activity with 10 µM RTx-303
T17 construct: purchased Eurofins (KinaseProfiler)
Method: as §1, §2, §3

CDK2/cyclinE(h) = biological target: T18, CDK2/cyclinE(h) (Homo sapiens, UniProt P24941); test: Kinase profiling; assay type: biochemical; conditions: mean n=2, read-out: % Activity with 10 µM RTx-303
T18 construct: purchased Eurofins (KinaseProfiler)
Method: as §1, §2, §3

ChaK1(h) = biological target: T19, ChaK1(h) (Homo sapiens, UniProt Q96QT4); test: Kinase profiling; assay type: biochemical; conditions: mean n=2, read-out: % Activity with 10 µM RTx-303
T19 construct: purchased Eurofins (KinaseProfiler)
Method: as §1, §2, §3

Cdc7/cyclinB1(h) = biological target: T20, Cdc7/cyclinB1(h) (Homo sapiens, UniProt O00311); test: Kinase profiling; assay type: biochemical; conditions: mean n=2, read-out: % Activity with 10 µM RTx-303
T20 construct: purchased Eurofins (KinaseProfiler)
Method: as §1, §2, §3

PI3KC2a(h) = biological target: T21, PI3KC2a(h) (Homo sapiens, UniProt O00443); test: Kinase profiling; assay type: biochemical; conditions: mean n=2, read-out: % Activity with 10 µM RTx-303
T21 construct: purchased Eurofins (KinaseProfiler)
Method: as §1, §2, §3

PASK(h) = biological target: T22, PASK(h) (Homo sapiens, UniProt Q96RG2); test: Kinase profiling; assay type: biochemical; conditions: mean n=2, read-out: % Activity with 10 µM RTx-303
T22 construct: purchased Eurofins (KinaseProfiler)
Method: as §1, §2, §3

A-Raf(h) = biological target: T23, A-Raf(h) (Homo sapiens, UniProt P10398); test: Kinase profiling; assay type: biochemical; conditions: mean n=2, read-out: % Activity with 10 µM RTx-303
T23 construct: purchased Eurofins (KinaseProfiler)
Method: as §1, §2, §3

PKCα(h) = biological target: T24, PKCα(h) (Homo sapiens, UniProt P17252); test: Kinase profiling; assay type: biochemical; conditions: mean n=2, read-out: % Activity with 10 µM RTx-303
T24 construct: purchased Eurofins (KinaseProfiler)
Method: as §1, §2, §3

TTBK1(h) = biological target: T25, TTBK1(h) (Homo sapiens, UniProt Q5TCY1); test: Kinase profiling; assay type: biochemical; conditions: mean n=2, read-out: % Activity with 10 µM RTx-303
T25 construct: purchased Eurofins (KinaseProfiler)
Method: as §1, §2, §3

CDK5/p25(h) = biological target: T26, CDK5/p25(h) (Homo sapiens, UniProt Q00535); test: Kinase profiling; assay type: biochemical; conditions: mean n=2, read-out: % Activity with 10 µM RTx-303
T26 construct: purchased Eurofins (KinaseProfiler)
Method: as §1, §2, §3

CDK9/cyclin T1(h) = biological target: T27, CDK9/cyclin T1(h) (Homo sapiens, UniProt P50750); test: Kinase profiling; assay type: biochemical; conditions: mean n=2, read-out: % Activity with 10 µM RTx-303
T27 construct: purchased Eurofins (KinaseProfiler)
Method: as §1, §2, §3

TSSK2(h) = biological target: T28, TSSK2(h) (Homo sapiens, UniProt Q96PF2); test: Kinase profiling; assay type: biochemical; conditions: mean n=2, read-out: % Activity with 10 µM RTx-303
T28 construct: purchased Eurofins (KinaseProfiler)
Method: as §1, §2, §3

CDK16/cyclinY(h) = biological target: T29, CDK16/cyclinY(h) (Homo sapiens, UniProt Q00536); test: Kinase profiling; assay type: biochemical; conditions: mean n=2, read-out: % Activity with 10 µM RTx-303
T29 construct: purchased Eurofins (KinaseProfiler)
Method: as §1, §2, §3

CDKL4(h) = biological target: T30, CDKL4(h) (Homo sapiens, UniProt Q5MAI5); test: Kinase profiling; assay type: biochemical; conditions: mean n=2, read-out: % Activity with 10 µM RTx-303
T30 construct: purchased Eurofins (KinaseProfiler)
Method: as §1, §2, §3

PKCζ(h) = biological target: T31, PKCζ(h) (Homo sapiens, UniProt Q05513); test: Kinase profiling; assay type: biochemical; conditions: mean n=2, read-out: % Activity with 10 µM RTx-303
T31 construct: purchased Eurofins (KinaseProfiler)
Method: as §1, §2, §3

PDHK2(h) = biological target: T32, PDHK2(h) (Homo sapiens, UniProt Q15119); test: Kinase profiling; assay type: biochemical; conditions: mean n=2, read-out: % Activity with 10 µM RTx-303
T32 construct: purchased Eurofins (KinaseProfiler)
Method: as §1, §2, §3

T27 sequence (P50750 whole entry): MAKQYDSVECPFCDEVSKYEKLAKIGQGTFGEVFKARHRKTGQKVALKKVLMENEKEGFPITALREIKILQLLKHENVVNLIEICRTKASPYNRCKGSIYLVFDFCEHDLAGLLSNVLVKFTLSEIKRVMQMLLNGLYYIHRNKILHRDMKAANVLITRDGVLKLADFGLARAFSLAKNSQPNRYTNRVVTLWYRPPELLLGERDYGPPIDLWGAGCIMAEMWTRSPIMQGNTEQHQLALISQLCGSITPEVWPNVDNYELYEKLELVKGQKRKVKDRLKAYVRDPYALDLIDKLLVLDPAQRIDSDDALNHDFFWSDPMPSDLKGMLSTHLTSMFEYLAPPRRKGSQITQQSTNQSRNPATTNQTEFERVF
T27 sequence (O60563 whole entry partner): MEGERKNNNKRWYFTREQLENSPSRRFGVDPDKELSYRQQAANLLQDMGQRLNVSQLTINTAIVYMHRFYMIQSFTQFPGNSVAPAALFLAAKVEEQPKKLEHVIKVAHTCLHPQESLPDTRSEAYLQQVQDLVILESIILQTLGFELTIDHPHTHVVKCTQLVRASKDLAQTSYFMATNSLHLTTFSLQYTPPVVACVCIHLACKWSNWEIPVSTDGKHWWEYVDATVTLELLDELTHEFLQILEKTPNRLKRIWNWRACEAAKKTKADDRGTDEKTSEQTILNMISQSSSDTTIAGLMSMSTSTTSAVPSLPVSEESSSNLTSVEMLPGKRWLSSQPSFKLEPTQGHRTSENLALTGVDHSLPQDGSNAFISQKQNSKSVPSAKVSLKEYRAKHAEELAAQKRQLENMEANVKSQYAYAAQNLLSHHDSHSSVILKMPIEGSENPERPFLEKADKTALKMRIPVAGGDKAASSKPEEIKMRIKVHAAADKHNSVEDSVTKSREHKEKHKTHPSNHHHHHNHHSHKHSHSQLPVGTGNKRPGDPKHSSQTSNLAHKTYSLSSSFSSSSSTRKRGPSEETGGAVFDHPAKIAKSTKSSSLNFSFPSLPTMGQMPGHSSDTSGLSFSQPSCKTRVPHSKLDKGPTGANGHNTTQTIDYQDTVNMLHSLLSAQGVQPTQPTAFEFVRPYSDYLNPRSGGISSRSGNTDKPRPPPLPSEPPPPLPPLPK
T2 sequence (P34947 whole entry): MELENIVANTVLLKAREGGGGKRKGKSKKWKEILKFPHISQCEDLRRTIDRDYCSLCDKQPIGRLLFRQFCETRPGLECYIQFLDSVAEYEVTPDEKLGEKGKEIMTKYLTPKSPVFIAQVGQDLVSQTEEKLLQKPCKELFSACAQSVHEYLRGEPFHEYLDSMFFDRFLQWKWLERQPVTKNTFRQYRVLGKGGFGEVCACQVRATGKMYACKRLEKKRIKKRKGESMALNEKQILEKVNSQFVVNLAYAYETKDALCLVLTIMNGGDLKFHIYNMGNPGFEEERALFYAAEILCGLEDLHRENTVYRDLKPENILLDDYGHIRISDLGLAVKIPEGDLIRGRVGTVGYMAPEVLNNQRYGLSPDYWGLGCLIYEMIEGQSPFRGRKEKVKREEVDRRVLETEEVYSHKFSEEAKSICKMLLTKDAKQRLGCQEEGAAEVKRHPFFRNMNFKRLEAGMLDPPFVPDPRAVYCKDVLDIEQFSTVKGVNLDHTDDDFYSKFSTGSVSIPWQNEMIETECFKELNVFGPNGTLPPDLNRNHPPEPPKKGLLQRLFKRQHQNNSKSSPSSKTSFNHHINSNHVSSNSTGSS
T9 sequence (Q5TCX8 whole entry): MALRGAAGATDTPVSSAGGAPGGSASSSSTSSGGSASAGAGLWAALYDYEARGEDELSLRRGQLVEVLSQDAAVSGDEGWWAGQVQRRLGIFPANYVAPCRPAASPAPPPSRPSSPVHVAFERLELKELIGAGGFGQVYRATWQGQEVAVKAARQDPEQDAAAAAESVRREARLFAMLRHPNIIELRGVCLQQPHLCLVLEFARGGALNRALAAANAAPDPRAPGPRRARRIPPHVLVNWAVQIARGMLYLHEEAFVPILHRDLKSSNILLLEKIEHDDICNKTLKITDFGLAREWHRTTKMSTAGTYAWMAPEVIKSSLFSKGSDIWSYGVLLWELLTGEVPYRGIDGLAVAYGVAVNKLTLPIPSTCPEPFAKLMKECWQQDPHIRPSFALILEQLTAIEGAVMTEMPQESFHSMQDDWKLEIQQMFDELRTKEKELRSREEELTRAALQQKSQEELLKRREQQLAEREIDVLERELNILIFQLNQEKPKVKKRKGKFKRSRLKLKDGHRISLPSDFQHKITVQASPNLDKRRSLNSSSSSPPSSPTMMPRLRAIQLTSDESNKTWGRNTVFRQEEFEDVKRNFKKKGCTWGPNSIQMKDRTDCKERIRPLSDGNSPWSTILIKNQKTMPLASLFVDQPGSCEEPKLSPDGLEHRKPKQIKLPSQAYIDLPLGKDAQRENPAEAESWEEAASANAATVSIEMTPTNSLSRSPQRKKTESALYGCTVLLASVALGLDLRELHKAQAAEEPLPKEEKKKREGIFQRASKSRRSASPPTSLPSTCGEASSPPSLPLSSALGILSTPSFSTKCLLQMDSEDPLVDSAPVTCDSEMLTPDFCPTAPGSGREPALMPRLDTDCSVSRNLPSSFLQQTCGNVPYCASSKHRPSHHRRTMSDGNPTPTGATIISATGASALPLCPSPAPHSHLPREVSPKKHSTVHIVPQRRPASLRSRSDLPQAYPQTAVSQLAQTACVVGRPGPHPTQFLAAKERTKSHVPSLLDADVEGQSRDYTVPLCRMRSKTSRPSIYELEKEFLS
T8 sequence (Q9UQ07 whole entry): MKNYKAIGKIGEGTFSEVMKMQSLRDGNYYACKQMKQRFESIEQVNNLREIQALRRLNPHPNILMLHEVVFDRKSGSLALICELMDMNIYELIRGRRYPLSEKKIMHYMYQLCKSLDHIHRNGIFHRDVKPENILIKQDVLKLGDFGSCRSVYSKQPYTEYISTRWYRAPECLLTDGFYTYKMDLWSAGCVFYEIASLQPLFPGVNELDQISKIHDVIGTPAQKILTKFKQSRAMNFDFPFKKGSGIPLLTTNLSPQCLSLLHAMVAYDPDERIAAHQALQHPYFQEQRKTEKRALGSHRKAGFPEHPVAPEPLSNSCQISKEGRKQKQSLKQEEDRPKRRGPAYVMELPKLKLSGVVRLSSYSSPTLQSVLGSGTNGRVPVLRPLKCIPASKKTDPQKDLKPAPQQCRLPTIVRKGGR
T5 sequence (O43781 whole entry): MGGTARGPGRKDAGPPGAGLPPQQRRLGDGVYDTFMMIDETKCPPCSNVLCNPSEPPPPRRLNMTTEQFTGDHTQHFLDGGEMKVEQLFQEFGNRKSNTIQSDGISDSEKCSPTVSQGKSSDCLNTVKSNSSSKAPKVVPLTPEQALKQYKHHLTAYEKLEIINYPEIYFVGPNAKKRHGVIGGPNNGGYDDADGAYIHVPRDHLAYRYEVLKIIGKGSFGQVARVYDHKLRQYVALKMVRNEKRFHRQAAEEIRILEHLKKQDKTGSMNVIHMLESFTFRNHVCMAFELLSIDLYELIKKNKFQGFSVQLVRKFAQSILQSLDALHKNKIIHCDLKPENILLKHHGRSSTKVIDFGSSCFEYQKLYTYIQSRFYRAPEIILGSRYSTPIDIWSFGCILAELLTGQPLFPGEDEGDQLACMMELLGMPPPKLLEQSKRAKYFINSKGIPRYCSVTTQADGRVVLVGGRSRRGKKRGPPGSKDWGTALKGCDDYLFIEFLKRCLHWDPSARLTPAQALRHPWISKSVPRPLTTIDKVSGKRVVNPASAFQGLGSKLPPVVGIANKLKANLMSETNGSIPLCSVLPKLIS
T20 sequence (O00311 whole entry): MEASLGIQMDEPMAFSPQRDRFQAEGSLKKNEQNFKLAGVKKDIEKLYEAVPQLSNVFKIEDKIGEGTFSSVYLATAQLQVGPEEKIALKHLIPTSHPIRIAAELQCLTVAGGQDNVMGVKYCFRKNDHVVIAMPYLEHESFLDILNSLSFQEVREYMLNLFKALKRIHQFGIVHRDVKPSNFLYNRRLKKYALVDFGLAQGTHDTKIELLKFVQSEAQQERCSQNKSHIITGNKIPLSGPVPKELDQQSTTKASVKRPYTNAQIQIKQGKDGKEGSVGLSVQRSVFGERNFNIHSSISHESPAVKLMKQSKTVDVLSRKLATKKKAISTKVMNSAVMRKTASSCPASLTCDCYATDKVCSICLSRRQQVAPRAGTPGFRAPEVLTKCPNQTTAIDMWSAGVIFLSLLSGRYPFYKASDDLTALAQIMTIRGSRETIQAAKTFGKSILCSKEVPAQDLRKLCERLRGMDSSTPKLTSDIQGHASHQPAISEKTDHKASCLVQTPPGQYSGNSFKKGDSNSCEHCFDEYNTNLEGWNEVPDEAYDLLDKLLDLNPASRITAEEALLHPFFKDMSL

[2H]C([2H])([2H])N(C(=O)Oc1c(N2CCN(CC(O)CN(C)C)C2=O)cc(C(F)(F)F)cc1C(F)(F)F)c1ccc(F)cc1 (centres unmarked) [RTx-284, 2-{3-[3-(Dimethylamino)-2-hydroxypropyl]-2-oxoimidazolidin-1-yl}-4,6-bis(trifluoromethyl)phenyl N-(4-fluorophenyl)-N-(methyl-d3)-carbamate]
synergy with multiple PARPi ([1]; MDA-MB-436 (BRCA1 mutant) and PE01 (BRCA2 mutant) cell lines): strong synergy | logP (LogP): 3.7 | fraction unbound [2]: 0.087

[2H]C([2H])([2H])N(C(=O)Oc1c(N2CCN(CC(O)CNC)C2=O)cc(C(F)(F)F)cc1C(F)(F)F)c1ccc(F)cc1 (centres unmarked) [RTx-283, 2-(3-(2-Hydroxy-3-(methylamino)propyl)-2-oxoimidazolidin-1-yl)-4,6-bis(trifluoromethyl)phenyl (4-fluorophenyl)(methyl-d3)carbamate]
logP (LogP): 3.3 | fraction unbound [2]: 0.06

[2H]C([2H])([2H])N(C(=O)Oc1c(N2CCN(C[C@H](O)CNC)C2=O)cc(C(F)(F)F)cc1C(F)(F)F)c1ccc(F)cc1 [RTx-315]
half-life at 1 μM (Hepatocyte stability [3]): 19.6 min | Mouse plasma protein binding (% free) [4]: 2.1 % free | half-life at 1 μM (Hepatocyte stability [5]): 31.9 min

[2H]C([2H])([2H])N(C(=O)Oc1c(N2CCN(C[C@H](O)CN(C)C)C2=O)cc(C(F)(F)F)cc1C(F)(F)F)c1ccc(F)cc1 [RTx-303]
half-life at 1 μM (Hepatocyte stability [3]): 9.9 min | activity at 10 µM (ATM(h)): 93% | activity at 10 µM (GRK5(h)): 103% | activity at 10 µM (CDK1/cyclinB(h)): 105% | activity at 10 µM (TAF1L(h)): 95% | activity at 10 µM (DYRK3(h)): 113% | activity at 10 µM (eEF-2K(h)): 94% | activity at 10 µM (PKCβI(h)): 103% | activity at 10 µM (MOK(h)): 100% | activity at 10 µM (MLK4(h)): 109% | activity at 10 µM (TTBK2(h)): 99% | activity at 10 µM (CDK7/cyclinH/MAT1(h)): 109% | activity at 10 µM (PIP4K2a(h)): 96% | activity at 10 µM (TRB2(h)): 98% | activity at 10 µM (CDK14/cyclinY(h)): 105% | activity at 10 µM (MAPKAP-K3(h)): 98% | activity at 10 µM (PKCγ(h)): 111% | activity at 10 µM (CDK6/cyclinD3(h)): 101% | activity at 10 µM (CDK2/cyclinE(h)): 109% | activity at 10 µM (ChaK1(h)): 102% | activity at 10 µM (Cdc7/cyclinB1(h)): 92% | activity at 10 µM (PI3KC2a(h)): 79% | activity at 10 µM (PASK(h)): 75% | activity at 10 µM (A-Raf(h)): 105% | activity at 10 µM (PKCα(h)): 103% | activity at 10 µM (TTBK1(h)): 101% | activity at 10 µM (CDK5/p25(h)): 104% | activity at 10 µM (CDK9/cyclin T1(h)): 119% | activity at 10 µM (TSSK2(h)): 102% | activity at 10 µM (CDK16/cyclinY(h)): 102% | activity at 10 µM (CDKL4(h)): 99% | activity at 10 µM (PKCζ(h)): 102% | activity at 10 µM (PDHK2(h)): 98% | Mouse plasma protein binding (% free) [4]: 3.9 % free | synergistic activity with PARPi ([1]; BRCA mutant cells in vitro, niraparib): synergistic activity | half-life at 1 μM (Hepatocyte stability [5]): 13.2 min
